The values that follow come from patent US6503936B1 (priority 1998, dated 2003).

Read-outs that look alike come from different tables or passages of the source.

The subject of test [1] is Phytophthora infestans. In kind it is in vivo. The note with it: tomato leaves, 6 days after infection.
For test [2], the system named is Phytophthora infestans. In kind it is in vivo. The following applies: tomato leaves, 6 days after infection. This is another data set of the same source.

As for `O=S(=O)([O-])[O-].[Cu+2].[Cu+2].[Cu+2].[Cu+2].[OH-].[OH-].[OH-].[OH-].[OH-].[OH-]` [II.1, tribasic copper sulfate 3Cu(OH)2xCuSO4], the “Efficiency in % of the untreated control” value was determined as 0% in the test with Phytophthora infestans [1] (12.5 ppm active compound in the spray liquor); 0% in the test with Phytophthora infestans [1] (25 ppm active compound in the spray liquor); 0% with Phytophthora infestans [1] (50 ppm active compound in the spray liquor); 10% in the test with Phytophthora infestans [1] (100 ppm active compound in the spray liquor); 0% in the test on Phytophthora infestans [2] (Conc. 12.5 ppm); 8% with Phytophthora infestans [2] (Conc. 25 ppm). Besides, the “Efficiency in % of the untreated control” value in the test on Phytophthora infestans [2] (Conc. 50 ppm), in the test on Phytophthora infestans [2] (Conc. 100 ppm) and with Phytophthora infestans [2] (Conc. 200 ppm) was 8% in each case.
